Experimental data published in patent US11214594B2, “Antimicrobial peptide having synergistic antibacterial effect with antibiotics on multidrug resistant bacteria, and use thereof” (priority 2016, dated 2022).
In brackets after ≈: the same amount, converted by molar mass. Where a SMILES comes first, the peptide text is derived from it. [ ]: non-standard residue; d: D form.

Tests used:
A. baumannii = experiment: MIC of antimicrobial peptide during combined treatment with antibiotic; assay type: cell-based, Acinetobacter baumannii
Method in brief: (§1)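 Broth microdilution in MH medium; strains were diluted to 2×10^6 CFU per ml before plating. Peptide was serially diluted stepwise at 2:1 starting from its MIC, and MH-diluted antibiotic was then added to determine MIC. The reversed arrangement was also tested.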

MDRAB 12035 = experiment: as above; assay type: cell-based, Acinetobacter baumannii
Method in brief: as §1

MDREC 1229 = experiment: MIC of antibiotic during combined treatment with antimicrobial peptide; assay type: cell-based, Escherichia coli
Method in brief: as §1

S. aureus = experiment: microbe, parasite or virus in culture; assay type: cell-based, Staphylococcus aureus
Method in brief: (§2)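 Broth microdilution in MH medium: strains diluted to 2×10^6 CFU were mixed with equal volumes of twofold serial peptide dilutions in MH medium. MIC was taken as the lowest peptide concentration preventing bacterial growth.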

MDRST 8007 = experiment: Minimal inhibitory concentration (MIC), single agent; assay type: cell-based, Salmonella typhimurium; settings: agent alone
Method in brief: as §2

E. coli = experiment: MIC of antibiotic during combined treatment with antimicrobial peptide; assay type: cell-based, Escherichia coli
Method in brief: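 First, antibiotic solution is diluted with MH medium; next, the dilution is dispensed into wells containing peptide; finally, the orientation is swapped and MIC of each mixture determined.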

[1] = erythromycin 4 μg/ml (Conc./MIC 1/8)
[2] = erythromycin 8 μg/ml (Conc./MIC 1/4)
[3] = erythromycin 16 μg/ml (Conc./MIC 1/2)
[4] = erythromycin 32 μg/ml (Conc./MIC 1)
[5] = vancomycin 512 μg/ml (Conc./MIC 1/2)
[6] = vancomycin 1024 μg/ml (Conc./MIC 1)
[7] = peptide treatment concentration 1 μg/ml
[8] = peptide treatment concentration 2 μg/ml
[9] = peptide treatment concentration 4 μg/ml
[10] = peptide treatment concentration 6 μg/ml
[11] = peptide treatment concentration 8 μg/ml
[12] = peptide treatment concentration 16 μg/ml
[13] = peptide treatment concentration 32 μg/ml
[14] = peptide treatment concentration 64 μg/ml

## CC[C@H](C)[C@H](NC(=O)[C@H](CCCCN)NC(=O)[C@H](Cc1c[nH]c2ccccc12)NC(=O)[C@@H](N)CCCNC(=N)N)C(=O)N[C@@H](Cc1ccccc1)C(=O)N[C@@H](CCCCN)C(=O)N[C@@H](CCCCN)C(=O)N[C@H](C(=O)N[C@H](CC(C)C)C(=O)N[C@@H](CCCCN)C(=O)N[C@@H](CC(C)C)C(=O)N[C@@H](CC(C)C)C(=O)N[C@@H](Cc1c[nH]cn1)C(=O)N[C@@H](CCCCN)C(=O)N[C@@H](C)C(=O)N[C@@H](CCCCN)C(=O)N[C@@H](CCCCN)C(=O)N[C@@H](Cc1c[nH]c2ccccc12)C(N)=O)[C@@H](C)CC [PapMA-22, RWK IFK KIl KLL HKA KKW-NH2] (H-RWKIFKKI[dL]KLLHKAKKW-NH2; N-terminus assumed)
A. baumannii; [1]
  Peptide MIC during treatment with erythromycin: 8 µg/mL
A. baumannii; [2]
  Peptide MIC during treatment with erythromycin: 4 µg/mL
A. baumannii; [3]
  Peptide MIC during treatment with erythromycin: 4 µg/mL
A. baumannii; [4]
  Peptide MIC during treatment with erythromycin: 0 µg/mL
A. baumannii; linezolid 32 μg/ml (Conc./MIC 1/8)
  Peptide MIC during treatment with linezolid: 4 µg/mL
A. baumannii; linezolid 64 μg/ml (Conc./MIC 1/4)
  Peptide MIC during treatment with linezolid: 4 µg/mL
A. baumannii; linezolid […] (Conc./MIC 1)
  Peptide MIC during treatment with linezolid: 0 µg/mL
A. baumannii; linezolid […] (Conc./MIC 1/2)
  Peptide MIC during treatment with linezolid: 1 µg/mL
A. baumannii; [5]
  Peptide MIC during treatment with vancomycin: 0.25 µg/mL
A. baumannii; [6]
  Peptide MIC during treatment with vancomycin: 0 µg/mL
A. baumannii; vancomycin […] (Conc./MIC 1/4)
  Peptide MIC during treatment with vancomycin: 0.5 µg/mL
A. baumannii; vancomycin […] (Conc./MIC 1/8)
  Peptide MIC during treatment with vancomycin: 2 µg/mL
MDRAB 12035; [1]
  Peptide MIC during treatment with erythromycin: 8 µg/mL
MDRAB 12035; [2]
  Peptide MIC during treatment with erythromycin: 8 µg/mL
MDRAB 12035; [3]
  Peptide MIC during treatment with erythromycin: 4 µg/mL
MDRAB 12035; [4]
  Peptide MIC during treatment with erythromycin: 0 µg/mL
MDRAB 12035; linezolid 64 μg/ml (Conc./MIC 1/8)
  Peptide MIC during treatment with linezolid: 4 µg/mL
MDRAB 12035; linezolid 512 μg/ml (Conc./MIC 1)
  Peptide MIC during treatment with linezolid: 0 µg/mL
MDRAB 12035; linezolid […] (Conc./MIC 1/2)
  Peptide MIC during treatment with linezolid: 1 µg/mL
MDRAB 12035; linezolid […] (Conc./MIC 1/4)
  Peptide MIC during treatment with linezolid: 4 µg/mL
MDRAB 12035; [5]
  Peptide MIC during treatment with vancomycin: 4 µg/mL
MDRAB 12035; [6]
  Peptide MIC during treatment with vancomycin: 1 µg/mL
MDRAB 12035; vancomycin […] (Conc./MIC 1/4)
  Peptide MIC during treatment with vancomycin: 4 µg/mL
MDRAB 12035; vancomycin […] (Conc./MIC 1/8)
  Peptide MIC during treatment with vancomycin: 4 µg/mL
MDREC 1229; [7]
  Antibiotic MIC, Erythromycin: 128 µg/mL
  Antibiotic MIC, Linezolid: >128 µg/mL
  Antibiotic MIC, Vancomycin: >128 µg/mL
MDREC 1229; [8]
  Antibiotic MIC, Erythromycin: 32 µg/mL
  Antibiotic MIC, Linezolid: >128 µg/mL
  Antibiotic MIC, Vancomycin: >128 µg/mL
MDREC 1229; [9]
  Antibiotic MIC, Erythromycin: 32 µg/mL
  Antibiotic MIC, Linezolid: 128 µg/mL
  Antibiotic MIC, Vancomycin: >128 µg/mL
MDREC 1229; [10]
  Antibiotic MIC, Erythromycin: 16 µg/mL
  Antibiotic MIC, Linezolid: 64 µg/mL
  Antibiotic MIC, Vancomycin: >128 µg/mL
MDREC 1229; [11]
  Antibiotic MIC, Erythromycin: 4 µg/mL
  Antibiotic MIC, Linezolid: 32 µg/mL
  Antibiotic MIC, Vancomycin: 64 µg/mL
MDREC 1229; [12]
  Antibiotic MIC, Erythromycin: 2 µg/mL
  Antibiotic MIC, Linezolid: 16 µg/mL
  Antibiotic MIC, Vancomycin: 32 µg/mL
MDREC 1229; [13]
  Antibiotic MIC, Erythromycin: 0 µg/mL
  Antibiotic MIC, Linezolid: 0 µg/mL
  Antibiotic MIC, Vancomycin: 0 µg/mL
MDREC 1229; [14]
  Antibiotic MIC, Erythromycin: 0 µg/mL
  Antibiotic MIC, Linezolid: 0 µg/mL
  Antibiotic MIC, Vancomycin: 0 µg/mL
S. aureus
  Minimal inhibitory concentration MIC: >128 µg/mL
MDRST 8007
  Minimal inhibitory concentration MIC: 32 µg/mL (≈ 13.5 µM)
E. coli; E. coli and MDREC1229
  Synergistic effect of antibacterial activity with existing antibiotics compared with PapMA-1: level similar to that of the PapMA-1 peptide
E. coli; E. coli, erythromycin combined with peptide at 1 μg/ml
  Antibiotic MIC, Erythromycin: 128 µg/mL
E. coli; E. coli, erythromycin combined with peptide at 2 μg/ml
  Antibiotic MIC, Erythromycin: 32 µg/mL
E. coli; E. coli, erythromycin combined with peptide at 4 μg/ml
  Antibiotic MIC, Erythromycin: 16 µg/mL
E. coli; E. coli, erythromycin combined with peptide at 6 μg/ml
  Antibiotic MIC, Erythromycin: 8 µg/mL
E. coli; E. coli, erythromycin combined with peptide at 8 μg/ml
  Antibiotic MIC, Erythromycin: 2 µg/mL
E. coli; E. coli, erythromycin combined with peptide at 16 μg/ml
  Antibiotic MIC, Erythromycin: 1 µg/mL
E. coli; E. coli, erythromycin combined with peptide at 32 μg/ml
  Antibiotic MIC, Erythromycin: 0 µg/mL
E. coli; E. coli, erythromycin combined with peptide at 64 μg/ml
  Antibiotic MIC, Erythromycin: 0 µg/mL
E. coli; E. coli, linezolid combined with peptide at 1 μg/ml
  Antibiotic MIC, Linezolid: >128 µg/mL
